In brackets after ≈: the same amount, converted by molar mass.
Target: T1, Clostridium histolyticum collagenase (ChC)
T1 construct: gene colG; commercial collagenase from Sigma-Aldrich
Assay: FALGPA hydrolysis, absorbance at […] nm
Assay type: biochemical, Hathewaya histolytica
Settings: 50 mM tricine, 400 mM NaCl, 10 mM CaCl2, pH 7.5; 0.8 mM FALGPA; 15 min preincubation

Structure (SMILES): CC1(C)CC[C@]2(C(=O)O)CC[C@]3(C)C(=CC[C@@H]4[C@@]5(C)CC[C@H](O)C(C)(C)[C@@H]5CC[C@]43C)[C@@H]2C1 [oleanolic acid]
- IC50: 21 ± 0.2 µg/mL (≈ 46 µM)
